Laboratory results: US9302999B2, “Substituted triazoles as herbicides” (E. I. DU PONT DE NEMOURS AND COMPANY, priority 2012, dated 2016)

What was measured:
Type in all cases: in vivo
[1] = test system: galium (catchweed bedstraw, Galium aparine); assay: Test D pre-/postemergence: galium
Outline: (§1)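 Scores run from 0 (no effect) to 100 (complete control), assigned by visual comparison with controls after 14 to 21 days in a controlled environment. Both preemergence application to silt loam and postemergence application to 1- to 4-leaf plants were tested.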

[2] = test system: common (oilseed) sunflower (Helianthus annuus); assay: Test C pre-/postemergence: sunflower; details: Preemergence
Text: Seeds of plant species selected from blackgrass (Alopecurus myosuroides), bromegrass, downy (downy bromegrass, Bromus tectorum), foxtail, green (green foxtail, Setaria viridis), ryegrass, Italian (Italian ryegrass, Lolium multiflorum), winter wheat (Triticum aestivum), wild oat (Avena fatua), galium (catchweed bedstraw, Galium aparine), bermudagrass (Cynodon dactylon), surinam grass (Brachiaria decumbens), cocklebur (common cocklebur, Xanthium strumarium), corn (Zea mays), large crabgrass (Digitaria sanguinalis), woolly cupgrass (Eriochloa villosa), foxtail, giant (giant foxtail, Setaria faberii), goosegrass (Eleusine indica), johnsongrass (Sorghum halepense), kochia (Kochia scoparia), lambsquarters (Chenopodium album), morningglory (Ipomoea coccinea), nightshade (eastern black nightshade, Solanum ptycanthum), nutsedge, yellow (yellow nutsedge, Cyperus esculentus), pigweed (Amaranthus retroflexus), ragweed (common ragweed, Ambrosia elation), soybean (Glycine max), common (oilseed) sunflower (Helianthus annuus), Russian thistle (Salsola kali) and velvetleaf (Abutilon theophrasti) were planted into a blend of loam soil and sand and treated preemergence with test chemicals formulated in a non-phytotoxic solvent mixture which included a surfactant.
At the same time, plants selected from these crop and weed species and also barley (winter barley, Hordeum vulgare), canarygrass (Phalaris minor), chickweed (common chickweed, Stellaria media) windgrass (Apera spica-venti) and deadnettle (henbit deadnettle, Lamium amplexicaule) were planted in pots containing Redi-Earth® planting medium (Scotts Company, 14111 Scottslawn Road, Marysville, Ohio 43041) comprising spaghnum peat moss, vermiculite, wetting agent and starter nutrients and treated with postemergence applications of test chemicals formulated in the same manner. Plants ranged in height from 2 to 18 cm (1- to 4-leaf stage) for postemergence treatments.
Treated plants and controls were maintained in a greenhouse for 13 to 15 days, after which time all species were compared to controls and visually evaluated. Plant response ratings, summarized in Table C, are based on a scale of 0 to 100 where 0 is no effect and 100 is complete control. A dash (-) response means no test result.

[3] = test system: ragweed (common ragweed, Ambrosia elation); assay: Test C pre-/postemergence: ragweed
Outline: (§2)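 Visual injury scored 0–100 (100 = complete control) against untreated controls after 13–15 greenhouse days. Surfactant-containing solvent formulations applied either to soil after sowing (loam/sand) or over 1- to 4-leaf plants, 2–18 cm tall.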

kochia (Kochia scoparia) = assay: Test D pre-/postemergence: kochia
Outline: as §1

[4] = test system: velvetleaf (Abutilon theophrasti); assay: Test C pre-/postemergence: velvetleaf
Outline: as §2

[5] = test system: field violet (Viola arvensis); assay: Test D pre-/postemergence: field violet
Outline: as §1

[6] = test system: large crabgrass (Digitaria sanguinalis); assay: Test C pre-/postemergence: large crabgrass
Outline: as §2

[7] = test system: ducksalad (Heteranthera limosa); assay: Test B flooded paddy: ducksalad; details: Flood; 250 g ai/ha; applied to paddy water at 2-leaf stage; visually evaluated after 13 to 15 days
Outline: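 Two-leaf-stage plants, pots flooded (3 cm above soil) and treated through the water, which stayed at that depth. After 13–15 days in greenhouse conditions, visual assessment versus controls: 0 is no effect, 100 complete control, dash means no result.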

[8] = Postemergence, 31 g ai/ha, scale 0 to 100 (0 no effect, 100 complete control)
[9] = Postemergence, 62 g ai/ha, scale 0 to 100 (0 no effect, 100 complete control)
[10] = Postemergence, 125 g ai/ha, scale 0 to 100, 0 no effect, 100 complete control
[11] = Postemergence, 250 g ai/ha, scale 0 to 100 (0 no effect, 100 complete control)
[12] = Postemergence, 16 g ai/ha, scale 0 to 100
[13] = Preemergence, 31 g ai/ha, scale 0 to 100 (0 no effect, 100 complete control)
[14] = Preemergence, 62 g ai/ha, scale 0 to 100
[15] = Preemergence, 125 g ai/ha, scale 0 to 100
[16] = Preemergence, 250 g ai/ha, scale 0 to 100
[17] = 31 g ai/ha, scale of 0 to 100, 0 is no effect, 100 is complete control
[18] = 125 g ai/ha, scale 0 to 100, 0 no effect, 100 complete control
[19] = 250 g ai/ha, scale 0 to 100, 0 no effect, 100 complete control
[20] = Postemergence, 250 g ai/ha, scale 0 to 100
[21] = Preemergence, 31 g ai/ha, scale of 0 to 100, 0 is no effect, 100 is complete control
[22] = Preemergence, 62 g ai/ha, scale of 0 to 100, 0 is no effect, 100 is complete control
[23] = Preemergence, 125 g ai/ha, scale 0 to 100, 0 no effect, 100 complete control
[24] = Preemergence, 250 g ai/ha, scale 0 to 100, 0 no effect, 100 complete control
[25] = Preemergence, 16 g ai/ha, scale 0 to 100 (0 no effect, 100 complete control)

With `Cc1nn(-c2ccc(F)cc2)nc1Oc1ccnc(C(F)(F)F)c1` [Compound 129, 4-[[2-(4-fluorophenyl)-5-methyl-2H-1,2,3-triazol-4-yl]oxy]-2-(trifluoromethyl)pyridine] the “Plant response rating: Galium” value [1, 8] was 50, the “Plant response rating: Galium” value [1, 9] was 75 and the “Plant response rating: Galium” value [1, 10] was 85. The “Plant response rating: Galium” value [1, 11] was 98, the “Plant response rating, Galium” value [1, 12] was 40 and the “Plant response rating, Galium” value [1, 13] was 0. For the same molecule, the “Plant response rating, Galium” value [1, 14] was 100, the “Plant response rating, Galium” value [1, 15] was 100 and the “Plant response rating, Galium” value [1, 16] was 100. The “Plant response rating, Sunflower” value [2, 17] was 0, the “Plant response rating, Sunflower” value ([2]; 62 g ai/ha, scale of 0 to 100, 0 is no effect, 100 is complete control) was 0 and the “Plant response rating, Sunflower” value [2, 18] was 0. For the same molecule, the “Plant response rating, Sunflower” value [2, 19] was 0, the “Plant response rating, Ragweed” value [3, 8] was 40 and the “Plant response rating, Ragweed” value [3, 9] was 40. For the same molecule, the “Plant response rating, Ragweed” value [3, 10] was 45, the “Plant response rating, Ragweed” value [3, 20] was 45 and the “Plant response rating, Ragweed” value [3, 21] was 0. The “Plant response rating, Ragweed” value [3, 22] was 0, the “Plant response rating, Ragweed” value [3, 23] was 0 and the “Plant response rating, Ragweed” value [3, 24] was 55. For the same molecule, the “Plant response rating: Kochia” value (kochia (Kochia scoparia); [8]) was 98, the “Plant response rating: Kochia” value (kochia (Kochia scoparia); [9]) was 100 and the “Plant response rating: Kochia” value (kochia (Kochia scoparia); [10]) was 100. For the same molecule, the “Plant response rating: Kochia” value (kochia (Kochia scoparia); [11]) was 100, the “Plant response rating, Kochia” value (kochia (Kochia scoparia); [12]) was 98 and the “Plant response rating, Kochia” value (kochia (Kochia scoparia); [25]) was 20. For the same molecule, the “Plant response rating, Kochia” value (kochia (Kochia scoparia); [13]) was 25, the “Plant response rating, Kochia” value (kochia (Kochia scoparia); [14]) was 75 and the “Plant response rating, Kochia” value (kochia (Kochia scoparia); [15]) was 100. The “Plant response rating, Kochia” value (kochia (Kochia scoparia); [16]) was 100, the “Plant response rating, Velvetleaf” value [4, 8] was 45 and the “Plant response rating, Velvetleaf” value [4, 9] was 45. The “Plant response rating, Velvetleaf” value [4, 10] was 80, the “Plant response rating, Velvetleaf” value [4, 20] was 100 and the “Plant response rating, Velvetleaf” value [4, 21] was 0. For the same molecule, the “Plant response rating, Velvetleaf” value [4, 22] was 10, the “Plant response rating, Velvetleaf” value [4, 23] was 45 and the “Plant response rating, Velvetleaf” value [4, 24] was 95. For the same molecule, the “Plant response rating: Field Violet” value [5, 8] was 100, the “Plant response rating: Field Violet” value [5, 9] was 100 and the “Plant response rating: Field Violet” value [5, 10] was 100. The “Plant response rating: Field Violet” value [5, 11] was 80, the “Plant response rating, Field Violet” value [5, 12] was 40 and the “Plant response rating, Field Violet” value [5, 25] was 100. For the same molecule, the “Plant response rating, Field Violet” value [5, 13] was 100, the “Plant response rating, Field Violet” value [5, 14] was 100 and the “Plant response rating, Field Violet” value [5, 15] was 100. The “Plant response rating, Field Violet” value [5, 16] was 100, the “Plant response rating, Crabgrass, Large” value [6, 8] was 20 and the “Plant response rating, Crabgrass, Large” value [6, 9] was 45. For the same molecule, the “Plant response rating, Crabgrass, Large” value [6, 10] was 65, the “Plant response rating, Crabgrass, Large” value [6, 20] was 85 and the “Plant response rating, Crabgrass, Large” value [6, 21] was 98. For the same molecule, the “Plant response rating, Crabgrass, Large” value [6, 22] was 100, the “Plant response rating, Crabgrass, Large” value [6, 23] was 100 and the “Plant response rating, Crabgrass, Large” value [6, 24] was 100.

In the case of `Fc1ccc(-n2nc(Cc3ccnc(C(F)(F)F)c3)c(OCC(F)(F)F)n2)cc1` [Compound 142], the “Plant response rating, Sunflower” value [2, 17] was 15, the “Plant response rating, Sunflower” value [2, 18] was 15 and the “Plant response rating, Sunflower” value [2, 19] was 25. For the same molecule, the “Plant response rating, Ducksalad (0 to 100 scale, 0 is no effect, 100 is complete control)” value [7] was 90, the “Plant response rating, Ragweed” value [3, 8] was 65 and the “Plant response rating, Ragweed” value [3, 9] was 70. For the same molecule, the “Plant response rating, Ragweed” value [3, 10] was 75, the “Plant response rating, Ragweed” value [3, 20] was 75 and the “Plant response rating, Ragweed” value [3, 21] was 40. For the same molecule, the “Plant response rating, Ragweed” value [3, 22] was 40, the “Plant response rating, Ragweed” value [3, 23] was 70 and the “Plant response rating, Ragweed” value [3, 24] was 80. The “Plant response rating, Velvetleaf” value [4, 8] was 30, the “Plant response rating, Velvetleaf” value [4, 9] was 50 and the “Plant response rating, Velvetleaf” value [4, 10] was 55. The “Plant response rating, Velvetleaf” value [4, 20] was 75, the “Plant response rating, Velvetleaf” value [4, 21] was 35 and the “Plant response rating, Velvetleaf” value [4, 22] was 75. The “Plant response rating, Velvetleaf” value [4, 23] was 80, the “Plant response rating, Velvetleaf” value [4, 24] was 100 and the “Plant response rating, Crabgrass, Large” value [6, 8] was 65. The “Plant response rating, Crabgrass, Large” value [6, 9] was 80, the “Plant response rating, Crabgrass, Large” value [6, 10] was 95 and the “Plant response rating, Crabgrass, Large” value [6, 20] was 95. For the same molecule, the “Plant response rating, Crabgrass, Large” value [6, 21] was 100, the “Plant response rating, Crabgrass, Large” value [6, 22] was 100 and the “Plant response rating, Crabgrass, Large” value [6, 23] was 100. For the same molecule, the “Plant response rating, Crabgrass, Large” value [6, 24] was 100.
